Assay results: the supplement of paper PMC4862054

How the values were obtained:
Details in all cases: incubation time: 72 h
[1] = test system: CAL-51; experiment: normalised response (% of control), CellTox Green; higher = less cell death (100 = DMSO, 0 = benzethonium chloride kill control)
Outline: (§1)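 Plates were normalised with 0.1 % DMSO as 100 and a positive kill control as 0. Breast cancer cell lines in 20 µl suspension had been seeded into 384-well plates with compound at 5 concentrations in 10-fold steps over a compound-specific 10,000-fold range, incubated 72 h, and read for CellTox Green fluorescence (485/520 nm) followed by CellTiter-Glo luminescence. Each value is the normalised signal at a single concentration.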

[2] = test system: MDA-MB-436; experiment: as above
Outline: as §1

[3] = test system: MDA-MB-468; experiment: as above
Outline: as §1

[4] = test system: CAL-120; experiment: as above
Outline: as §1

[5] = test system: MFM-223; experiment: as above
Outline: as §1

[6] = test system: CAL-148; experiment: as above
Outline: as §1

[7] = test system: MCF-10A; experiment: as above
Outline: as §1

[8] = test system: BT-549; experiment: as above
Outline: as §1

[9] = test system: DU-4475; experiment: as above
Outline: as §1

[10] = test system: HDQ-P1; experiment: as above
Outline: as §1

[11] = test system: HCC1937; experiment: as above
Outline: as §1

[12] = test system: CAL-85-1; experiment: as above
Outline: as §1

[13] = test system: Hs578T; experiment: as above
Outline: as §1

[14] = test system: HCC1143; experiment: as above
Outline: as §1

[15] = test system: MDA-MB-453; experiment: as above
Outline: as §1

[16] = test system: MDA-MB-231; experiment: as above
Outline: as §1

[17] = test system: BT-474; experiment: as above
Outline: as §1

[18] = test system: HCC1599; experiment: as above
Outline: as §1

[19] = test system: CAL-51; experiment: normalised response (% of control), CellTiter-Glo; higher = more viable cells (100 = DMSO, 0 = benzethonium chloride kill control)
Protocol: (§2)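 DSRT, 72 h incubation, CellTox Green / CellTiter-Glo readout. Signal is normalised to DMSO and benzethonium chloride controls. Value is the normalised response at the highest dose.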

[20] = test system: MDA-MB-436; experiment: as above
Protocol: as §2

[21] = test system: MDA-MB-468; experiment: as above
Protocol: as §2

[22] = test system: CAL-120; experiment: as above
Protocol: as §2

[23] = test system: MFM-223; experiment: as above
Protocol: as §2

[24] = test system: CAL-148; experiment: as above
Protocol: as §2

[25] = test system: MCF-10A; experiment: as above
Protocol: as §2

[26] = test system: BT-549; experiment: as above
Protocol: as §2

[27] = test system: DU-4475; experiment: as above
Protocol: as §2

[28] = test system: HDQ-P1; experiment: as above
Protocol: as §2

[29] = test system: HCC1937; experiment: as above
Protocol: as §2

[30] = test system: CAL-85-1; experiment: as above
Protocol: as §2

[31] = test system: SK-BR-3; experiment: as above
Protocol: as §2

[32] = test system: Hs578T; experiment: as above
Protocol: as §2

[33] = test system: HCC1143; experiment: as above
Protocol: as §2

[34] = test system: MDA-MB-453; experiment: as above
Protocol: as §2

[35] = test system: MDA-MB-231; experiment: as above
Protocol: as §2

[36] = test system: BT-474; experiment: as above
Protocol: as §2

[37] = test system: HCC1599; experiment: as above
Protocol: as §2

SMILES	normalised response [1] [%]	normalised response [2] [%]	normalised response [3] [%]	normalised response [4] [%]	normalised response [5] [%]	normalised response [6] [%]	normalised response [7] [%]	normalised response [8] [%]	normalised response [9] [%]	normalised response [10] [%]	normalised response [11] [%]	normalised response [12] [%]	normalised response [13] [%]	normalised response [14] [%]	normalised response [15] [%]	normalised response [16] [%]	normalised response [17] [%]	normalised response [18] [%]	normalised response [19] [%]	normalised response [20] [%]	normalised response [21] [%]	normalised response [22] [%]	normalised response [23] [%]	normalised response [24] [%]	normalised response [25] [%]	normalised response [26] [%]	normalised response [27] [%]	normalised response [28] [%]	normalised response [29] [%]	normalised response [30] [%]	normalised response [31] [%]	normalised response [32] [%]	normalised response [33] [%]	normalised response [34] [%]	normalised response [35] [%]	normalised response [36] [%]	normalised response [37] [%]
NC(=O)Nc1cc(-c2cccc(F)c2)sc1C(=O)N[C@H]1CCCNC1 [AZD7762] (1000 nM)	14.1	84.9	75.8	91.8	95.8	87.1	90.8	94.3	99.9	90.3	65.8	-20.6	40.7	103	87	48.5	91.9	98	45.3	28.8	31.7	55.7	64.2	106	31.1	21.2	89.3	28	26.4	15.2	12	22.1	23.7	40.8	32	43	10.2
N#CCNC(=O)c1ccc(-c2ccnc(Nc3ccc(N4CCOCC4)cc3)n2)cc1 [Momelotinib] (10000 nM)	85.1	78	22	97.4	97.5	100	90.5	31.3	95.5	100	102	54.6	87	98	70.6	19	101	90	58	71	22.2	50.2	67.2	97.3	43	23.5	64.8	87.1	84.5	43.7	55.1	41.4	66.6	104	46.8	55.8	96.8
COc1cc2ncnc(Nc3ccc(F)c(Cl)c3)c2cc1NC(=O)/C=C/CN1CCCCC1 [Dacomitinib] (1000 nM)	109	–	121	98.7	99.5	96.7	96.8	74.8	99.1	94.1	–	38.7	115	75.7	96.3	103	–	99.1	116	84.4	65.3	95.6	93.1	83.9	35.8	80.9	97.8	68.1	84.3	46.8	21.1	90.7	94	56.2	84.5	86.8	105
CS(=O)(=O)c1ccc(C2=C(c3ccccc3)C(=O)OC2)cc1 [Rofecoxib] (10000 nM)	98.7	77.7	–	105	68.2	98.8	102	102	101	112	–	84.6	128	114	66.6	108	–	97.2	71.8	111	113	102	102	119	109	103	100	99.8	106	100	106	110	105	98.6	100	94.5	100
O=C(CCCCCCC(=O)Nc1ccc([C@H]2O[C@@H](CSc3nc(-c4ccccc4)c(-c4ccccc4)o3)C[C@@H](c3ccc(CO)cc3)O2)cc1)NO [Tubacin] (10000 nM)	53.8	89.9	98.2	75.1	81.7	81.1	110	71.7	92.1	102	54.5	-3.19	85.2	27.7	39	-21.5	73.7	95.2	35.4	57.5	17.2	51.8	38.2	73.5	52.4	42	70.7	68.6	32.3	18.4	45.4	51.4	37.1	6.07	8.62	13.9	13.7
CC(=O)Nc1ccc(C(=O)Nc2ccccc2N)cc1 [Tacedinaline] (1000 nM)	96.2	107	58.9	101	105	97.9	77.3	114	99	104	83.6	92.3	99.3	75.3	98.2	111	97.7	98.2	113	95	108	105	99.7	95.2	99.7	107	98	98.5	97.2	103	98.9	92.1	100	98.7	95.7	95.2	120
CCC(C)(C)C(=O)O[C@H]1C[C@@H](C)C=C2C=C[C@H](C)[C@H](CC[C@@H]3C[C@@H](O)CC(=O)O3)[C@H]21 [Simvastatin] (10000 nM)	46.8	51.8	–	77.4	104	104	23.2	98.6	99	82.2	95.6	84.3	–	–	104	-117	99.9	–	78.4	84.9	83.2	91.8	97.9	102	23.9	87.7	94.2	65	92.6	84.4	98.9	91.2	95.9	93.3	30	47.2	103
CC(C)Cn1cnc2c(N)nc3ccccc3c21 [Imiquimod] (2500 nM)	106	102	–	96.6	–	100	88.2	72.1	99.3	–	106	83.7	130	104	93.9	96.5	101	101	92.8	106	109	95.8	103	106	95	98	103	103	99.6	104	106	105	94.5	105	98.2	96	94.9
O=C(O)c1ccc(-c2c[nH]c3ncc(-c4ccccc4)cc23)cc1C1CCCC1 (10000 nM)	63.4	57.9	90.1	99.2	66.2	91.6	83.6	99.3	97.5	91	–	119	117	117	102	92.8	95.4	94	92.7	84.2	57	94.5	95	94.4	97.1	74.5	86.2	107	105	99.3	58.7	89	97.8	105	94.1	86.7	105
